Experimental data reported in PubChem BioAssay AID330 (DTP/NCI, 2004).
Several values for one entry are separate records, joined by “and”; a condition that tells them apart may be missing. Identical values can stand only once. Toxic doses and inconclusive results are not listed.

System: P388 leukemia ip, CD2F1 mice, survival T/C
Assay: NCI In Vivo Anticancer Drug Screen. Data for tumor model P388 Leukemia (intraperitoneal) in CD2F1 (CDF1) mice
Conditions: endpoint: median survival time, higher = longer survival
Summary of the method: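 Mice carrying the transplanted tumor received test compound or vehicle. Survival was recorded in each group, and the value is the treated-group measurement divided by that of the vehicle-treated control group.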

[1] = dose: 50.0 mg/kg/injection, schedule: Q01DX005 (ip), vehicle: Klucel (hydroxypropylcellulose) (HPC)
[2] = dose: 100.0 mg/kg/injection, schedule: Q01DX005 (ip), vehicle: Klucel (hydroxypropylcellulose) (HPC)
[3] = dose: 50.0 mg/kg/injection, schedule: Q01DX005 (ip), vehicle: saline with Tween-80
[4] = dose: 100.0 mg/kg/injection, schedule: Q01DX005 (ip), vehicle: saline with Tween-80
[5] = dose: 240.0 mg/kg/injection, schedule: Q01DX005 (ip), vehicle: saline with Tween-80
[6] = dose: 60.0 mg/kg/injection, schedule: Q01DX005 (ip), vehicle: Klucel (hydroxypropylcellulose) (HPC)
[7] = dose: 120.0 mg/kg/injection, schedule: Q01DX005 (ip), vehicle: Klucel (hydroxypropylcellulose) (HPC)
[8] = dose: 50.0 mg/kg/injection, schedule: Q01DX009 (ip), vehicle: saline with Tween-80
[9] = dose: 100.0 mg/kg/injection, schedule: Q01DX009 (ip), vehicle: saline with Tween-80
[10] = dose: 200.0 mg/kg/injection, schedule: Q01DX009 (ip), vehicle: saline with Tween-80
[11] = dose: 100.0 mg/kg/injection, schedule: Q04DX003 (ip), vehicle: saline sonified
[12] = dose: 50.0 mg/kg/injection, schedule: Q01DX009 (ip), vehicle: saline
[13] = dose: 60.0 mg/kg/injection, schedule: Q01DX005 (ip), vehicle: saline with Tween-80
[14] = dose: 120.0 mg/kg/injection, schedule: Q01DX005 (ip), vehicle: saline with Tween-80
[15] = dose: 200.0 mg/kg/injection, schedule: Q01DX005 (ip), vehicle: saline with Tween-80
[16] = dose: 12.5 mg/kg/injection, schedule: Q01DX009 (ip), vehicle: saline
[17] = dose: 25.0 mg/kg/injection, schedule: Q01DX009 (ip), vehicle: saline
[18] = dose: 240.0 mg/kg/injection, schedule: Q01DX005 (ip), vehicle: Klucel (hydroxypropylcellulose) (HPC)
[19] = dose: 25.0 mg/kg/injection, schedule: Q01DX009 (ip), vehicle: saline with Tween-80

With `CCC1(c2ccc(N)cc2)CCC(=O)NC1=O` (configuration not stated) the T/C [1] was 91 % of control and the T/C [2] was 100 % of control.
With `O=C(O)/C=N/NS(=O)(=O)c1ccc(Cl)cc1` the T/C (dose: 6.25 mg/kg/injection, schedule: Q01DX009 (ip), vehicle: other) was 101 % of control, the T/C (dose: 12.5 mg/kg/injection, schedule: Q01DX009 (ip), vehicle: other) was 122 % of control and the T/C (dose: 50.0 mg/kg/injection, schedule: Q01DX009 (ip), vehicle: other) was 159 % of control. The T/C (dose: 100.0 mg/kg/injection, schedule: Q01DX009 (ip), vehicle: other) was 99 % of control.
`CCCCCCC1OCN2CCCCC12` (configuration not stated) was tested, and the T/C (dose: 50.0 mg/kg/injection, schedule: Q01DX005 (ip), vehicle: saline) was 105 % of control, the T/C (dose: 100.0 mg/kg/injection, schedule: Q01DX005 (ip), vehicle: saline) was 107 % of control and the T/C (dose: 200.0 mg/kg/injection, schedule: Q01DX005 (ip), vehicle: saline) was 109 % of control.
With `COc1cccc(/C=C(\NC(=O)c2ccccc2)c2nc3ccccc3s2)c1` the T/C [3] was 110 % of control, the T/C [4] was 116 % of control and the T/C [5] was 116 % of control.
In the case of `COc1ccc(-n2c(C)c(COC(=O)NC(C)C)c(COC(=O)NC(C)C)c2C)cc1`, the T/C (dose: 20.0 mg/kg/injection, schedule: Q01DX005 (ip), vehicle: Klucel (hydroxypropylcellulose) (HPC)) is reported as 163 % of control, the T/C (dose: 40.0 mg/kg/injection, schedule: Q01DX005 (ip), vehicle: Klucel (hydroxypropylcellulose) (HPC)) is reported as 172 % of control and the T/C [6] is reported as 150 % of control and 186 % of control. For the same compound, the T/C [7] was 181 % of control.
With `CCOC(=O)C(C(=O)OCC)C1CCC2(C)CCC(=O)C=C2C1` (configuration not stated) the T/C [8] was 95 % of control, the T/C [9] was 100 % of control and the T/C [10] was 105 % of control.
For `COc1cc(C(=O)NOCc2cc3c(cc2Cl)OCO3)cc(OC)c1OC`, the T/C [11] was 90 % of control and the T/C (dose: 400.0 mg/kg/injection, schedule: Q04DX003 (ip), vehicle: saline sonified) was 90 % of control.
For `NC(=O)C12OC3CC(CC(C3)O1)O2`, the T/C (dose: 60.0 mg/kg/injection, schedule: Q01DX005 (ip), vehicle: saline) was 117 % of control, the T/C (dose: 120.0 mg/kg/injection, schedule: Q01DX005 (ip), vehicle: saline) was 98 % of control and the T/C (dose: 240.0 mg/kg/injection, schedule: Q01DX005 (ip), vehicle: saline) was 99 % of control.
In the case of `O=C(Cl)C=Cc1ccc([N+](=O)[O-])cc1` (mixture of isomers), the T/C [12] is reported as 104 % of control and the T/C (dose: 100.0 mg/kg/injection, schedule: Q01DX009 (ip), vehicle: saline) is reported as 94 % of control.
For `CCNc1ncnc2c1cnn2C`, the T/C (dose: 25.0 mg/kg/injection, schedule: Q01DX009 (ip), vehicle: saline sonified) was 109 % of control, the T/C (dose: 50.0 mg/kg/injection, schedule: Q01DX009 (ip), vehicle: saline sonified) was 113 % of control and the T/C (dose: 50.0 mg/kg/injection, schedule: Q04DX003 (ip), vehicle: saline sonified) was 112 % of control. For the same compound, the T/C [11] was 104 % of control and the T/C (dose: 200.0 mg/kg/injection, schedule: Q04DX003 (ip), vehicle: saline sonified) was 116 % of control.
In the case of `Fc1ccccc1C(Nc1nncs1)Nc1nncs1`, the T/C (dose: 15.0 mg/kg/injection, schedule: Q01DX005 (ip), vehicle: saline with Tween-80) is reported as 95 % of control, the T/C (dose: 30.0 mg/kg/injection, schedule: Q01DX005 (ip), vehicle: saline with Tween-80) is reported as 94 % of control and the T/C [13] is reported as 102 % of control and 104 % of control.
In the case of `COc1ccccc1/C=C1/C(=O)ON=C1C`, the T/C [13] is reported as 100 % of control, the T/C [14] is reported as 98 % of control and the T/C [5] is reported as 108 % of control.
`O=S(=O)(O)c1cc2nonc2c2ccccc12` was tested, and the T/C [3] was 98 % of control, the T/C [4] was 98 % of control and the T/C [15] was 95 % of control.
With `CC1(C)CC(=O)C([Se]C2=C(O)CC(C)(C)CC2=O)=C(O)C1` the T/C (dose: 6.25 mg/kg/injection, schedule: Q01DX009 (ip), vehicle: saline) was 101 % of control, the T/C [16] was 104 % of control and the T/C [17] was 111 % of control.
With `O=C1CSC(c2ccc(Cl)cc2)N1N1C(=O)CSC1c1ccc(Cl)cc1` (configuration not stated) the T/C [6] was 99 % of control, the T/C [7] was 91 % of control and the T/C [18] was 90 % of control.
`CC(=O)C1CCC2C3CC4OCC5(CCC(O)CC45Br)C3CCC12C` (configuration not stated) was tested, and the T/C [1] was 104 % of control, the T/C [2] was 98 % of control and the T/C (dose: 200.0 mg/kg/injection, schedule: Q01DX005 (ip), vehicle: Klucel (hydroxypropylcellulose) (HPC)) was 101 % of control.
For `CCOC(=O)c1ccc(NC(=O)CCOc2ccccc2)cc1`, the T/C [6] was 88 % of control, the T/C [7] was 88 % of control and the T/C [18] was 87 % of control.
`CSC(C#N)(c1ccccc1)N(C)C` (configuration not stated) was tested, and the T/C (dose: 25.0 mg/kg/injection, schedule: Q04DX003 (ip), vehicle: suspension in saline) was 106 % of control, the T/C (dose: 50.0 mg/kg/injection, schedule: Q04DX003 (ip), vehicle: suspension in saline) was 103 % of control and the T/C (dose: 100.0 mg/kg/injection, schedule: Q04DX003 (ip), vehicle: saline with Tween-80) was 103 % of control. For the same compound, the T/C (dose: 100.0 mg/kg/injection, schedule: Q04DX003 (ip), vehicle: suspension in saline) was 96 % of control.
In the case of `CC(=O)Oc1[nH]c(=O)c2cccc3c2c1CCC3`, the T/C [19] is reported as 102 % of control, the T/C [8] is reported as 101 % of control and 102 % of control and the T/C [9] is reported as 108 % of control and 112 % of control.
For `CC(=O)Nc1ccc(S(=O)(=O)/C(=C\c2ccc(Cl)o2)c2ccc([N+](=O)[O-])o2)cc1`, the T/C (dose: 50.0 mg/kg/injection, schedule: Q01DX009 (ip), vehicle: suspension in saline) was 86 % of control, the T/C (dose: 100.0 mg/kg/injection, schedule: Q01DX009 (ip), vehicle: suspension in saline) was 88 % of control and the T/C (dose: 200.0 mg/kg/injection, schedule: Q01DX009 (ip), vehicle: suspension in saline) was 92 % of control.
For `O=[N+]([O-])c1ccc(N/N=C\c2c(Cl)[nH]c3ccccc23)cc1`, the T/C (dose: 100.0 mg/kg/injection, schedule: Q04DX002 (ip), vehicle: saline + alcohol) was 86 % of control, the T/C (dose: 200.0 mg/kg/injection, schedule: Q04DX002 (ip), vehicle: saline + alcohol) was 98 % of control and the T/C (dose: 400.0 mg/kg/injection, schedule: Q04DX002 (ip), vehicle: saline + alcohol) was 104 % of control.
For `c1ccc2c(c1)Nc1ncccc1S2`, the T/C [8] was 99 % of control and 94 % of control, the T/C [9] was 92 % of control and 95 % of control and the T/C [10] was 107 % of control and 92 % of control. The T/C (dose: 400.0 mg/kg/injection, schedule: Q01DX009 (ip), vehicle: saline with Tween-80) was 108 % of control.
In the case of `CC1=Nc2cc(Cl)c(Cl)cc2N(C)/C1=C/C1=C(Cl)C(=O)c2ccccc2C1=O`, the T/C (dose: 6.25 mg/kg/injection, schedule: Q01DX009 (ip), vehicle: saline with Tween-80) is reported as 114 % of control, the T/C (dose: 12.5 mg/kg/injection, schedule: Q01DX009 (ip), vehicle: saline with Tween-80) is reported as 95 % of control and the T/C [19] is reported as 107 % of control. For the same compound, the T/C [8] was 105 % of control and the T/C [9] was 104 % of control.
In the case of `CN1CCN(N=Nc2ccccc2Cl)CC1`, the T/C [16] is reported as 99 % of control, the T/C [17] is reported as 111 % of control and the T/C [12] is reported as 103 % of control and 98 % of control.
`CNc1ccc2c(cc1=O)C(NC(C)=O)CCc1cc(OC)c(OC)c(OC)c1-2` (configuration not stated) was tested, and the T/C (dose: 0.08 mg/kg/injection, schedule: Q01DX009 (ip), vehicle: Klucel (hydroxypropylcellulose) (HPC)) was 157 % of control, the T/C (dose: 0.12 mg/kg/injection, schedule: Q01DX009 (ip), vehicle: Klucel (hydroxypropylcellulose) (HPC)) was 157 % of control and the T/C (dose: 0.16 mg/kg/injection, schedule: Q01DX009 (ip), vehicle: Klucel (hydroxypropylcellulose) (HPC)) was 174 % of control. The T/C (dose: 0.25 mg/kg/injection, schedule: Q01DX009 (ip), vehicle: Klucel (hydroxypropylcellulose) (HPC)) was 150 % of control and the T/C (dose: 0.32 mg/kg/injection, schedule: Q01DX009 (ip), vehicle: Klucel (hydroxypropylcellulose) (HPC)) was 166 % of control.
With `c1ccc2c3c(cc(CNCCNCc4cc5c(c6ccccc46)CCCC5)c2c1)CCCC3` the T/C [3] was 87 % of control, the T/C [4] was 96 % of control and the T/C [15] was 110 % of control.
With `C#CCSc1nnnn1-c1ccccc1` the T/C [8] was 98 % of control, the T/C [9] was 90 % of control and the T/C [10] was 90 % of control.
`Cc1onc(-c2ccccc2Cl)c1C(=O)SCC(=O)Nc1cc(C(F)(F)F)cc(C(F)(F)F)c1` was tested, and the T/C [8] was 98 % of control, the T/C [9] was 100 % of control and the T/C [10] was 89 % of control.
In the case of `OCC1OC(n2cnc3c(NCc4ccco4)ncnc32)C(O)C1O` (configuration not stated), the T/C [8] is reported as 111 % of control, the T/C [9] is reported as 93 % of control and the T/C [10] is reported as 118 % of control.
For `CC(C)N(C(C)C)P1P(N(C(C)C)C(C)C)P(N(C(C)C)C(C)C)P1N(C(C)C)C(C)C` (configuration not stated), the T/C [13] was 88 % of control, the T/C [14] was 86 % of control and the T/C [5] was 89 % of control.
